Earlier results in patent US20250152537A1, “COMPOSITIONS AND METHODS FOR THE TREATMENT OF HUMAN IMMUNODEFICIENCY VIRUS” (PROTHIONE LLC, priority 2022, published 2025).

Settings: not told

## N[C@@H](CCC(=O)N[C@@H](CS)C(=O)NCC(=O)O)C(=O)O [GSH, glutathione]
  membrane permeability: membrane-impermeable
